Holding throughout (assay type): functional
For assay [1], the system named is Escherichia coli. In words: Antibacterial activity against metallo-beta-lactamase VIM12 expressing Escherichia coli 28 isolate from decubitus ulcer infection patient by Etest.
The test system of assay [2] is Escherichia coli. In words: Antibacterial activity against Escherichia coli 26R793 by Etest.
Assay [3] concerns Escherichia coli. In words: Antibacterial activity against Escherichia coli transconjugant carrying pEC28 isolate eby Etest.

In brackets after ≈: the same amount, converted by molar mass.

As usually defined, the MIC is the lowest concentration that inhibits growth of the organism. `NCC[C@H](O)C(=O)N[C@@H]1C[C@H](N)[C@@H](O[C@H]2O[C@H](CN)[C@@H](O)[C@H](O)[C@H]2O)[C@H](O)[C@H]1O[C@H]1O[C@H](CO)[C@@H](O)[C@H](N)[C@H]1O` [AMIKACIN]: the MIC with Escherichia coli [1] was 128 µg/mL (≈ 219 µM); in the assay with Escherichia coli [2], 2 µg/mL (≈ 3.42 µM); in the assay on Escherichia coli [3], 48 µg/mL (≈ 82 µM).

`CC1(C)S[C@@H]2[C@H](NC(=O)[C@H](N)c3ccc(O)cc3)C(=O)N2[C@H]1C(=O)O` [AMOXICILLIN]: the minimum inhibitory concentration (MIC) was more than 256 µg/mL in the assay on Escherichia coli [1], 4 µg/mL (≈ 10.9 µM) against Escherichia coli [2] and 32 µg/mL (≈ 87.6 µM) in the assay on Escherichia coli [3].

For `C[C@H]1[C@H](NC(=O)/C(=N\OC(C)(C)C(=O)O)c2csc(N)n2)C(=O)N1S(=O)(=O)O` [AZTREONAM], the results for the minimal inhibitory concentration (MIC) against Escherichia coli [1], against Escherichia coli [2] and against Escherichia coli [3] were 1 µg/mL (≈ 2.3 µM), 0.094 µg/mL (≈ 0.216 µM) and 0.5 µg/mL (≈ 1.15 µM), respectively.

On to `CO/N=C(\C(=O)N[C@@H]1C(=O)N2C(C(=O)[O-])=C(C[N+]3(C)CCCC3)CS[C@H]12)c1csc(N)n1` [CEFEPIME], for which the figures for the MIC in the assay with Escherichia coli [1], with Escherichia coli [2] and in the assay with Escherichia coli [3] were 12 µg/mL (≈ 25 µM), 0.094 µg/mL (≈ 0.196 µM) and 1 µg/mL (≈ 2.08 µM), respectively.

With `CO/N=C(\C(=O)N[C@@H]1C(=O)N2C(C(=O)O)=C(COC(C)=O)CS[C@H]12)c1csc(N)n1` [CEFOTAXIME], the minimum inhibitory concentration (MIC) was more than 32 µg/mL in the assay on Escherichia coli [1], 0.094 µg/mL (≈ 0.206 µM) against Escherichia coli [2] and 8 µg/mL (≈ 17.6 µM) with Escherichia coli [3].

On to `CO[C@@]1(NC(=O)Cc2cccs2)C(=O)N2C(C(=O)O)=C(COC(N)=O)CS[C@@H]21` [CEFOXITIN], for which the minimum inhibitory concentration (MIC) with Escherichia coli [1] was more than 256 µg/mL; with Escherichia coli [2] it was 8 µg/mL (≈ 18.7 µM); in the assay with Escherichia coli [3] it was 32 µg/mL (≈ 74.9 µM).

For the compound `CC(C)(O/N=C(\C(=O)N[C@@H]1C(=O)N2C(C(=O)[O-])=C(C[n+]3ccccc3)CS[C@H]12)c1csc(N)n1)C(=O)O` [CEFTAZIDIME], the MIC in the assay on Escherichia coli [1] is more than 256 µg/mL; in the assay with Escherichia coli [2], 0.75 µg/mL (≈ 1.37 µM); against Escherichia coli [3], 4 µg/mL (≈ 7.32 µM).

On to `O=C(O)c1cn(C2CC2)c2cc(N3CCNCC3)c(F)cc2c1=O` [CIPROFLOXACIN], for which the minimum inhibitory concentration (MIC) with Escherichia coli [1], against Escherichia coli [2] and against Escherichia coli [3] was 0.047 µg/mL (≈ 0.142 µM) in each case.

For the compound `C[C@@H](O)[C@H]1C(=O)N2C(C(=O)O)=C(S[C@@H]3CN[C@H](C(=O)Nc4cccc(C(=O)O)c4)C3)[C@H](C)[C@H]12` [ERTAPENEM], the MIC against Escherichia coli [1] was 0.5 µg/mL (≈ 1.05 µM); in the assay on Escherichia coli [2], 0.064 µg/mL (≈ 0.135 µM); against Escherichia coli [3], 0.094 µg/mL (≈ 0.198 µM).

Consider `C[C@@H](O)[C@H]1C(=O)N2C(C(=O)O)=C(SCCNC=N)C[C@H]12` [IMIPENEM ANHYDROUS], for which the MIC against Escherichia coli [1] was found to be 1 µg/mL (≈ 3.34 µM); against Escherichia coli [2] it was 0.5 µg/mL (≈ 1.67 µM).

As for `C[C@@H](O)[C@H]1C(=O)N2C(C(=O)O)=C(S[C@@H]3CN[C@H](C(=O)N(C)C)C3)[C@H](C)[C@H]12` [MEROPENEM], the results for the MIC against Escherichia coli [1], against Escherichia coli [2] and in the assay on Escherichia coli [3] were 0.25 µg/mL (≈ 0.652 µM), 0.032 µg/mL (≈ 0.0834 µM) and 0.023 µg/mL (≈ 0.06 µM), respectively.

In the case of `CN(C)[C@@H]1C(O)=C(C(N)=O)C(=O)[C@@]2(O)C(O)=C3C(=O)c4c(O)cccc4[C@@](C)(O)[C@H]3C[C@@H]12` [TETRACYCLINE], the MIC with Escherichia coli [1] is more than 256 µg/mL; against Escherichia coli [2], 1 µg/mL (≈ 2.25 µM); against Escherichia coli [3], 1 µg/mL (≈ 2.25 µM).

For the origin of these results see ChEMBL document CHEMBL1155151, “First occurrence of an Escherichia coli clinical isolate producing the VIM-1/VIM-2 hybrid metallo-beta-lactamase VIM-12” (2007).
